Measured values reported in ChEMBL document CHEMBL1201862, “PubChem BioAssay data set” (2004).
Calls of active or inactive are those of the source. Unless noted, the rule behind the calls is not given here.

Experiments:
[1] = target: T1, Dual specificity protein phosphatase 3 (Homo sapiens, UniProt P51452); assay: SAR VHR1 absorbance Assay for In Vitro dose response studies. [Related pubchem assays (depositor defined):AID1654, AID1661, AID1878, AID1992, AID2004]
[2] = target: T2, Tyrosine-protein phosphatase non-receptor type 7 (Homo sapiens, UniProt P35236); assay: redox-dependent HePTP inhibition, mechanism study, biochemical, fluorescence (AID 2068); type: functional
T2 sequence (P35236 whole entry): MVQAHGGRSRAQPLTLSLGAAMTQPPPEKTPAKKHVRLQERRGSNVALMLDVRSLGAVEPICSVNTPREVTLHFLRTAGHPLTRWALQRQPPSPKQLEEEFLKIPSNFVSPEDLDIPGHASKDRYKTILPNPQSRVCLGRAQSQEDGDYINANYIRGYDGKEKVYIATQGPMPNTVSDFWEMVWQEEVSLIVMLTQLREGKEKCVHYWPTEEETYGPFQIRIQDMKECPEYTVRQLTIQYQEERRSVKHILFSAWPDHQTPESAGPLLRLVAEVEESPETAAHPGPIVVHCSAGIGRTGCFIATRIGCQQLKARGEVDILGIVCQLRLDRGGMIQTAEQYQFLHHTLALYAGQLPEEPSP

[3] = target: T3, Dual specificity protein phosphatase 6 (Rattus norvegicus, UniProt Q64346); type: functional;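 also: confirmatory in vitro dose-response testing of MKP-3 inhibition; recombinant His-tagged MKP-3 made in E. coli BL21 with OMFP substrate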
T3 sequence (Q64346 whole entry): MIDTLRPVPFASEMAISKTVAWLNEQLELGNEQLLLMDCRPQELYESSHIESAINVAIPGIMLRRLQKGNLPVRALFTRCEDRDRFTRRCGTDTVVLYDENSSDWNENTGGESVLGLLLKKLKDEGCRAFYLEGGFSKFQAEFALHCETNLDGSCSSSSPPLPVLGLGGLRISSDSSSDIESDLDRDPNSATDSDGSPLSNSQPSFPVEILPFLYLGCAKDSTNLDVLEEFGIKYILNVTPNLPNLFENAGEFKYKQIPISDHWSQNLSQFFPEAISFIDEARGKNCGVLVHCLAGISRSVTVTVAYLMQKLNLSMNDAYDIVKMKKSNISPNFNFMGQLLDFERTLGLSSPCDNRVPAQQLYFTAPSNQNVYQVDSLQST

[4] = target: T1, Dual specificity protein phosphatase 3; assay: SAR VHR1 Fluorescent Assay for In Vitro dose response studies. [Related pubchem assays (depositor defined):AID1654, AID1661, AID1878, AID1992, AID2004, AID2070, AID2085]; type: functional
[5] = target: DNA dC->dU-editing enzyme APOBEC-3G (Homo sapiens, UniProt Q9HC16); assay: Dose Response confirmation of small molecule APOBEC3G DNA Deaminase Inhibitors via a fluorescence-based single-stranded DNA deaminase assay. [Related pubchem assays (depositor defined):AID493012, AID493028]; type: functional
[6] = target: DNA dC->dU-editing enzyme APOBEC-3A (Homo sapiens, UniProt P31941); assay: APOBEC3A DNA deaminase inhibitors, dose response, biochemical (AID 504722); type: functional
Troponin, cardiac muscle = Troponin, cardiac muscle (Homo sapiens, UniProt P19429+P45379+P63316); assay: Fluorescence-based biochemical high throughput dose response assay for activators of the calcium sensitivity of cardiac Regulated Thin Filaments (RTF). [Related pubchem assays (depositor defined):AID493008, AID493018, AID504382, AID504383]; type: protein-complex assay
Large T antigen = Large T antigen (Simian virus 40, UniProt P03070); type: functional, Betapolyomavirus macacae;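 also: Confirmatory-stage PubChem screen for compounds that inhibit SV40 T antigen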
Melanocortin receptor 4 = Melanocortin receptor 4 (Homo sapiens, UniProt P32245); assay: MC4R antagonist potency on cAMP, dose response, cell-based, TR-FRET, biased antagonists (AID 602298); type: functional;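 also: antagonist potency against agonist-stimulated cAMP production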
[7] = C2C12 myoblast ATP-based viability loss, dose response, cytotoxicity control for HRAS target identification, cell-based, CellTiter-Glo ATP luminescence, 8/24/48 h, dry powder (AID 720603); type: functional
Fatty acid synthase [8] = target: T4, Fatty acid synthase (Homo sapiens, UniProt P49327); assay: FAS thioesterase domain inhibitors, dose response, biochemical, kinetic fluorescence intensity (AID 624326); type: functional;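 also: rate of fluorescence rise from hydrolysis of a fluorogenic O-methyl fluorescein ester substrate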
[9] = SR lymphoma cell viability over time, late-stage follow-up, mechanism study for HRAS target identification, CellTiter-Glo ATP luminescence, 8-48 h, dry powder (AID 720608); type: functional, cell-based
Paired box protein Pax-8 = Paired box protein Pax-8 (Homo sapiens, UniProt Q06710); assay: inhibitors of PAX8-driven TPO luciferase reporter, dose response, RMG-I cells, cherry-pick (AID 687027); type: functional, cell-based;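 also: luciferase reporter driven by Pax8 target thyroperoxidase promoter measured by SteadyGlo luminescence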
[10] = growth suppression of beta-catenin-knockout colon cells, dose response, cell-based, HCT116, human colon tumor (AID 1045); type: functional;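 also: HCT116 colon tumor cells with beta catenin knocked out; cells exposed to compound for 60 hours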
INS1 = assay: beta cell apoptosis inhibitors, cytokine rescue, dose response, luminescence, retest (AID 449756); type: functional, cell-based; conditions: Rattus norvegicus;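 also: cell death triggered by IL-1 beta plus TNF-alpha plus IFN-gamma mixture; protective hits raise ATP signal compared with cytokine alone wells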
[11] = viability loss in BJeLR (HRASV12) cells, primary screen, Ras selective lethality project, cell-based, Alamar Blue, dry powder (AID 493045); type: functional
[12] = cytotoxicity in BJeHLT fibroblasts, dose response, counter-screen for Ras selective lethality project, BJeHLT cells, dry powder (AID 493052); type: functional, cell-based; conditions: Homo sapiens
[13] = SNB-19 glioblastoma cell viability over time, late-stage follow-up, mechanism study for HRAS target identification, CellTiter-Glo ATP luminescence, 8-48 h, dry powder (AID 720611); type: functional, cell-based
[14] = HT-29 colorectal cell cytotoxicity over time, dose response, HRas target identification project, CellTiter-Glo, multiple timepoints, dry powder (AID 720598); type: functional, cell-based
[15] = HUVEC endothelial cell viability loss, dose response, cytotoxicity control for HRAS target identification, CellTiter-Glo ATP luminescence, 8/24/48 h, dry powder (AID 720604); type: functional, cell-based
Protein RecA = target: T5, Protein RecA (Mycobacterium tuberculosis, UniProt P9WHJ3); assay: Fluorescence Cell-Free Homogeneous Dose Retest to Identify Inhibitors of RecA-Intein Splicing Activity. [Related pubchem assays (depositor defined):AID2097, AID2223, AID489010, AID492950]; type: functional
T5 sequence (P9WHJ3 whole entry): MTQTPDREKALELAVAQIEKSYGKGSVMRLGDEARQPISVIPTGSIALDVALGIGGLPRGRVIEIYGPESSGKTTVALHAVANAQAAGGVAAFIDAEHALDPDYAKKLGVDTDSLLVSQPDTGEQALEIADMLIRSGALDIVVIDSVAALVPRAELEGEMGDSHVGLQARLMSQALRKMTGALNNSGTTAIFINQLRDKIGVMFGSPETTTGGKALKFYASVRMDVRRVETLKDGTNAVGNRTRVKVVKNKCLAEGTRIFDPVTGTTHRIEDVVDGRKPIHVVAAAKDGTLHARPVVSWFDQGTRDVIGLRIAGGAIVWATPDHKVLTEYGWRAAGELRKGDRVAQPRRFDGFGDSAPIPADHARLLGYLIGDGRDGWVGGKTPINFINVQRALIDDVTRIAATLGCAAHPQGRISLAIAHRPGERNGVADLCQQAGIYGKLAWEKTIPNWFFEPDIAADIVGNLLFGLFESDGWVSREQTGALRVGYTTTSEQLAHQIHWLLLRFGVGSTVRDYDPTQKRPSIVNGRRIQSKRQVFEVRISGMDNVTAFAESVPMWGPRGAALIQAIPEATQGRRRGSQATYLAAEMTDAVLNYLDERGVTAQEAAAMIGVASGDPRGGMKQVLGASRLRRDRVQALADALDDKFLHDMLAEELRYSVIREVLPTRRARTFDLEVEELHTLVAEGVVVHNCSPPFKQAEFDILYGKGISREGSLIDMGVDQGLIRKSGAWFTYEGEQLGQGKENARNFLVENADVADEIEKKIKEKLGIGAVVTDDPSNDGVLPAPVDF

[16] = cytotoxicity in BJeH fibroblasts, dose response, counter-screen for Ras selective lethality project, BJeH cells, dry powder (AID 493054); type: functional, cell-based
[17] = growth suppression of PTEN-null colon cells, dose response, cell-based, HCT116 PTEN knockout (AID 1047); type: functional;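 also: HCT116 colon tumor cells with PTEN knocked out; cells exposed to compound for 60 hours before readout; potency for loss of cell viability measured by luminescence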
[18] = CCRF-CEM leukemia cell viability loss, dose response, HRAS target identification, CellTiter-Glo ATP luminescence, 8/24/48 h, dry powder (AID 720607); type: functional, cell-based
[19] = viability loss in HRASV12 DRD fibroblasts, dose response, cell-based, DRD BJ fibroblasts, dry powder (AID 493049); type: functional
[20] = non-specific cell cytotoxicity, dose response, cytotoxicity control for PAX8 inhibitor project, plate reader, dry powder samples (AID 743021); type: functional, cell-based
[21] = U-251 glioblastoma cell viability loss, dose response, HRAS target identification, Alamar Blue fluorescence, 8/24/48 h, dry powder (AID 720605); type: functional, cell-based
[22] = nonselective inhibitors of cellular cAMP signaling, dose response, counter-screen for MC4R biased antagonist project, cell-based, TR-FRET cAMP detection (AID 602305); type: functional;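 also: U2OS cells stimulated with forskolin near its EC80 as the cAMP inducer; potency is for inhibition of forskolin-stimulated cAMP signaling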
Fatty acid synthase [23] = target: T4, Fatty acid synthase; assay: FAS thioesterase domain inhibitors, dose response, biochemical, endpoint fluorescence intensity, uHTS hits (AID 624327); type: functional;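 also: fluorescence from hydrolysis of an O-methyl fluorescein acyl ester substrate by the enzyme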
BJ = assay: cytotoxicity toward Ras-transformed BJeLR fibroblasts, dose response, cell-based, alamar blue fluorescence, cherrypicked samples (AID 2631); type: functional; conditions: Homo sapiens;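 also: confirmatory dose-response assay in RAS-dependent BJ fibroblasts engineered with TERT, LT and ST, with cytotoxicity read by fluorescence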
[24] = HeLa cell viability over time, late-stage follow-up, mechanism study for HRAS target identification, CellTiter-Glo ATP luminescence, 8-48 h, dry powder (AID 720609); type: functional, cell-based
[25] = U-251 glioblastoma cell viability loss, late-stage follow-up, mechanism study for HRAS target identification, CellTiter-Glo ATP luminescence, several timepoints, dry powder (AID 720616); type: functional, cell-based
[26] = target: T6, Replicative DNA helicase DnaB (Mycobacterium tuberculosis, UniProt P9WMR3); assay: DnaB intein splicing inhibitors, dose response, biochemical, cell-free fluorescence (AID 449749); type: functional
T6 sequence (P9WMR3 whole entry): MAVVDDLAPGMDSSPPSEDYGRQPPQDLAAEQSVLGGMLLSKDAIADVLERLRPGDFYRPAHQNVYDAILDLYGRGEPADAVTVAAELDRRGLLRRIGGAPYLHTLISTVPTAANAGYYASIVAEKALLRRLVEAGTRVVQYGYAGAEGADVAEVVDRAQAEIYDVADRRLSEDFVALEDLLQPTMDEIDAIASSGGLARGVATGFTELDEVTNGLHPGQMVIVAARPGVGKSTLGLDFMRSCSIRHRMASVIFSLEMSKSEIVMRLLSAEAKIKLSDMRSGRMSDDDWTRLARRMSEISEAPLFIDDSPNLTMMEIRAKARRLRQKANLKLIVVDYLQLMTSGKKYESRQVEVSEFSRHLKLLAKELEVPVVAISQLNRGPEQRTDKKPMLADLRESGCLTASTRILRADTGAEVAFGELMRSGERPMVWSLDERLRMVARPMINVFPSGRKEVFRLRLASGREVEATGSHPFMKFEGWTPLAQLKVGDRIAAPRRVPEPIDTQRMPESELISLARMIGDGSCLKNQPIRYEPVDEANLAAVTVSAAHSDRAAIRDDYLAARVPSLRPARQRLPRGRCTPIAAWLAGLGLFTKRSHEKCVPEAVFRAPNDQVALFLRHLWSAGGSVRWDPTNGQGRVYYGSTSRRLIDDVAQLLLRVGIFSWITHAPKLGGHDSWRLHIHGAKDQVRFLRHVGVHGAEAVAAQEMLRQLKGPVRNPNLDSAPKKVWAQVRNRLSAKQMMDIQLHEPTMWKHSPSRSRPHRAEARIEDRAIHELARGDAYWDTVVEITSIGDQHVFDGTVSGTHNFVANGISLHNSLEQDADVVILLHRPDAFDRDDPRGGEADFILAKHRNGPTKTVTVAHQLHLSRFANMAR

[27] = LOX IMVI melanoma cell viability loss, dose response, HRAS target identification, CellTiter-Glo ATP luminescence, 8/24/48 h, dry powder (AID 720602); type: functional, cell-based

## S=C(c1cn(CCOc2ccccc2)c2ccccc12)N1CCOCC1
[1]
  IC50: > 100 µM (inactive)
[2]
  IC50: 2.35 µM (active)
[3]
  IC50: > 99 µM (inactive)
[4]
  IC50: > 99 µM (inactive)

## Cc1cccc(/C=N/n2c(S)nnc2-c2ccncc2)c1
[5]
  IC50: 2.62 µM (active)
[6]
  IC50: > 100 µM (inactive)
Troponin, cardiac muscle
  EC50: > 71.5 µM (inactive)
Large T antigen
  IC50: 43.7 µM (active)

## COc1ccc(N(C(=O)CCl)C(C(=O)NCCc2ccccc2)c2cccs2)cc1Cl (centres undefined)
Melanocortin receptor 4
  IC50: > 64.6 µM (inactive)
[7]
  AC50: 6.07 µM (active)
Fatty acid synthase [8]
  IC50: 10.6 µM (active)
[9]
  AC50: 0.0694 µM (active)
Paired box protein Pax-8
  AC50: 0.323 µM (active)
[10]
  EC50: 0.765 µM (active)
INS1
  AC50: 2.82 µM (active)
[11]
  AC50: 0.249 µM (active)
[12]
  AC50: 0.847 µM (active)
[13]
  AC50: 1.18 µM (active)
[14]
  AC50: 0.296 µM (active)
[15]
  AC50: 12 µM (active)
Protein RecA
  EC50: 0.24 µM (active)
[16]
  AC50: 0.76 µM (active)
[17]
  EC50: 1.48 µM (active)
[18]
  AC50: 0.133 µM (active)
[19]
  AC50: 0.232 µM (active)
[20]
  AC50: 2.16 µM (active)
[21]
  AC50: 0.0572 µM (active)
[22]
  IC50: > 64.6 µM (inactive)
Fatty acid synthase [23]
  IC50: 10.2 µM (active)
BJ
  EC50: 0.167 µM (active)
[24]
  AC50: 0.582 µM (active)
[25]
  AC50: 0.941 µM (active)
[26]
  AC50: 1.82 µM (active)
[27]
  AC50: 0.0563 µM (active)
